Assay results as given in patent US20100168225A1, “Small-Molecule Hepatitis C Virus (HCV) NS3/4A Serine Protease Inhibitors” (priority 2007, published 2010).

Target: SARS 3CL^PRO (Severe acute respiratory syndrome coronavirus, UniProt P0C6X7)
Experiment: biochemical

Question: `O=c1ccc2ccc(O)c(O)c2o1` [Compound C10, Daphnetin] was tested. Which IC50 (ID50) did it give?
Answer: 168 µM

Question: For `O=c1oc2cc(O)c(O)cc2cc1O` [Compound C11, 3-hydroxyesculetin], which IC50 (ID50) is on record?
Answer: 97 µM

Question: And the IC50 (ID50 (μM) (by kinetic assay) SARS 3CL^PRO)?
Answer: 96.6 µM

Question: `CC(=O)Nc1cc2cc(OC(C)=O)c(OC(C)=O)cc2oc1=O` [Compound C12, 3-aminoacyl-6,7-diacetoxycoumarin] was tested. Which IC50 (ID50) did it give?
Answer: 183 µM

Question: How did the IC50 (ID50) turn out when `O=c1oc2c(O)c(O)ccc2cc1O` [Compound C21, 3,7,8-trihydroxycoumarin] was run?
Answer: 100 µM

Question: For `CC(=O)Nc1cc2ccc(OC(C)=O)c(OC(C)=O)c2oc1=O` [Compound C22, 3-aminoacyl-7,8-diacetoxycoumarin], which IC50 (ID50) is on record?
Answer: 184 µM
